System: cancer patients subjected to IMRT irradiation (bone marrow damage by radiation)
Details: mean±SE, n=16, before treatment taken as 1
Description: These patients were subjected to IMRT irradiation integrated with a computed tomograph (CT). Irradiation was in principle performed on a schedule of once a day, five times per week, and this schedule was repeated. Radiation was applied at 1 to 5 locations for 5 to 20 minutes once, and the number of times irradiation was performed was 5 to 20.
These patients were housed in a hyperbaric capsule (APF 2, 700×1900 mm; oxygen concentration: 28% by volume; Air Press Co., Ltd.) at 1.35 atm for 30 minutes after each irradiation with radiation to alleviate the adverse effects.
In addition, 16 patients (8 males and 8 females) who had visited from April 2016 until November 2016 were included in the hydrogen group. These patients were housed in the capsule similar to the above-mentioned capsule except that a hydrogen gas inhaler (MHG-44280, MiZ Company Limited), which generates approximately 6.5% by volume of hydrogen gas (4 L/min) by electrolysis of water, was connected in series with and upstream the air intake of the pressurizing device for the hyperbaric capsule provided outside the capsule, so as to feed high-pressure air containing hydrogen gas into the capsule, while the patients were allowed to inhale, via the nasal cannula, for 30 minutes, 4% by volume to 6% by volume of hydrogen gas (4 L/min) carried through a Y-shaped tube by which the air outlets of two hydrogen gas inhalers (MHG-2070 and MHG-2140, MiZ Company Limited) provided in the capsule were connected in parallel. The hydrogen gas concentration in the ceiling portion of the capsule was approximately 0.2% by volume.
Blood samples were taken periodically from both groups of patients before, during and after radiation treatment. The analysis items of blood were the white blood cell count (WBC), red blood cell count (RBC), hemoglobin level (Hb), hematocrit level (Ht) and platelet count (PLT), and these were used as indicators for hematopoietic function.

[1] = 4-6% by volume hydrogen gas inhaled 30 min in hyperbaric capsule at 1.35 atm, no significant difference vs control

[HH] [H2, hydrogen gas]
WBC ratio: relative value of the white blood cell count (WBC) immediately after radiation treatment to the WBC before radiation treatment (4-6% by volume hydrogen gas inhaled 30 min in hyperbaric capsule at 1.35 atm after each irradiation, p<0.01 vs control): 0.612±0.088 | Hb ratio: relative value of the hemoglobin level (Hb) immediately after radiation treatment to the Hb before radiation treatment [1]: 0.966±0.029 | Ht ratio: relative value of the hematocrit level (Ht) immediately after radiation treatment to the Ht before radiation treatment [1]: 0.953±0.027 | RBC ratio: relative value of the red blood cell count (RBC) immediately after radiation treatment to the RBC before radiation treatment [1]: 0.985±0.027 | PLT ratio: relative value of the platelet count (PLT) immediately after radiation treatment to the PLT before radiation treatment (4-6% by volume hydrogen gas inhaled 30 min in hyperbaric capsule at 1.35 atm, p<0.05 vs control): 0.752±0.130

— patent US11529367B2, “Radiation damage protective agent” (MiZ Company Limited, priority 2016, dated 2022)
